Experiments:
[1] = system: Japanese medaka (Oryzias latipes); assay: Fish Short‐Term Reproduction Assay; assay type: in vivo; conditions: for GSI Female / GSI Male / HSI Male / Length Female / Length Male / Weight Female / Weight Male: completion of exposure
medaka ARβ (mArβ) [2] = target: T1, medaka ARβ (mArβ) (Oryzias latipes, UniProt D1MV73); assay: Medaka ARβ reporter gene assay, antagonist assay; assay type: cell-based, Japanese medaka (Oryzias latipes); conditions: 11‐KT spiked at 50 nM (D); MAC = 3.2 × 10^−5 M
T1 sequence (D1MV73 1-744): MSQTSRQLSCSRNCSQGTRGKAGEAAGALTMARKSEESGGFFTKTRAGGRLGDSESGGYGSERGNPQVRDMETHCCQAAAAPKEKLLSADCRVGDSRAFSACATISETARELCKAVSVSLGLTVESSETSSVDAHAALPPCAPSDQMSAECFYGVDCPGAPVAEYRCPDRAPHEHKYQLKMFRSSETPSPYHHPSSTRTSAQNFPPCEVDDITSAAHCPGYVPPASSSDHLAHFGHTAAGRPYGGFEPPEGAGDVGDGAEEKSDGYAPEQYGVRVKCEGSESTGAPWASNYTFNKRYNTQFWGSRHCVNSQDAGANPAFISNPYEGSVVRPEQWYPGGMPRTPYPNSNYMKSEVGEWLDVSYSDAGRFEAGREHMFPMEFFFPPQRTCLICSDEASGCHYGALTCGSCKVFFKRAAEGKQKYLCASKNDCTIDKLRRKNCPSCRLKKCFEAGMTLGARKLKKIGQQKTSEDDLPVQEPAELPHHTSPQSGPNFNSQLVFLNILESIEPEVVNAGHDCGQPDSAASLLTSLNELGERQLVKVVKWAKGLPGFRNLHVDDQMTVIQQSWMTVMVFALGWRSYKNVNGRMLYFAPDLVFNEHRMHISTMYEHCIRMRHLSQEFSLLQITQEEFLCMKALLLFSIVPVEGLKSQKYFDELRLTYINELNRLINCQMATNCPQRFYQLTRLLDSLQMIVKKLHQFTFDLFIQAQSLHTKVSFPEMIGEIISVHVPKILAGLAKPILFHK

medaka ARβ (mArβ) [3] = target: T1, medaka ARβ (mArβ); assay: Medaka ARβ reporter gene assay, agonist assay; assay type: cell-based, Japanese medaka (Oryzias latipes); conditions: MAC = 1.0 × 10^−4 M
medaka Esr1 (mEsr1) [4] = target: T2, medaka Esr1 (mEsr1) (Oryzias latipes, UniProt P50241); assay: cell-based; parameters: species or system Japanese medaka (Oryzias latipes); conditions: MAC = 1.0 × 10^−4 M
T2 sequence (P50241 1-620): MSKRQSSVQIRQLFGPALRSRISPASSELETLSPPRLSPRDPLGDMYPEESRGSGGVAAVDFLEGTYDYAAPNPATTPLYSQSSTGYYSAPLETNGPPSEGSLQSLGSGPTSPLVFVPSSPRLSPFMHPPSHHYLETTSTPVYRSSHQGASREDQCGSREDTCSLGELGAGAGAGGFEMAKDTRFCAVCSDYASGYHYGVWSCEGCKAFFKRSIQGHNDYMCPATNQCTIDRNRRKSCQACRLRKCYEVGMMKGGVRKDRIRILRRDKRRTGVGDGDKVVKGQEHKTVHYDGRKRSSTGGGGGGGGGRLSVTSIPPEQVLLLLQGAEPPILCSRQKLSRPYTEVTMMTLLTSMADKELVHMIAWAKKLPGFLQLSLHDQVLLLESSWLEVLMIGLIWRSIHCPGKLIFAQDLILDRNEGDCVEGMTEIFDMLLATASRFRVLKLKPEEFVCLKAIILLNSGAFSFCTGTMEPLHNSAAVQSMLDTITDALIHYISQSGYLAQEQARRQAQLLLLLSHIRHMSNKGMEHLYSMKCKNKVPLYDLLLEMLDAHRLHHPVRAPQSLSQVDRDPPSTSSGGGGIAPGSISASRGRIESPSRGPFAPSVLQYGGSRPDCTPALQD

medaka Esr1 (mEsr1) [5] = target: T2, medaka Esr1 (mEsr1); assay: Medaka Esr1 reporter gene assay, antagonist assay; assay type: cell-based, Japanese medaka (Oryzias latipes)
[6] = 18.5 mg/L measured, 21 d, sig. ↑ vs control
[7] = measured concentration 2.25 mg/L
[8] = measured concentration 4.76 mg/L
[9] = measured concentration 8.72 mg/L
[10] = measured concentration 18.5 mg/L

## O=C1NC(=O)C(c2ccccc2)(c2ccccc2)N1 [PHT, Phenitoin, reference compound]
[1]; 2.25 mg/L measured, 21 d
  Fertility rate: 92 ± 2.8%
  Hepatic VTG, female: 685 ± 110 ng/mg‐liver
  Hepatic VTG, male: 1.4 ± 0.5 ng/mg‐liver
  Mortality: 0.0%
  Mortality, number of dead fish: 0
  Number of fertilized eggs (per female per day): 18 ± 4.3
  Number of total eggs (per female per day): 20 ± 5.0
  SSC female (joint plates with papillary processes): 0 ± 0
  SSC male (joint plates with papillary processes): 95 ± 14
[1]; 4.76 mg/L and above
  Abnormal behavior (in words): fish frequently showed abnormal behavior such as loss of balance
[1]; 4.76 mg/L measured, 21 d
  Fertility rate: 86 ± 9.3%
  Hepatic VTG, female: 1,013 ± 183 ng/mg‐liver
  Hepatic VTG, male: 4.2 ± 6.7 ng/mg‐liver
  Mortality: 0.0%
  Mortality, number of dead fish: 0
  Number of fertilized eggs (per female per day): 17 ± 3.2
  Number of total eggs (per female per day): 20 ± 2.0
  SSC female (joint plates with papillary processes): 0 ± 0
[1]; 8.72 mg/L measured, 21 d
  Hepatic VTG, female: 661 ± 199 ng/mg‐liver
  Hepatic VTG, male: 1.0 ± 0.4 ng/mg‐liver
  Mortality: 4.2%
  Mortality, number of dead fish: 1
  SSC female (joint plates with papillary processes): 0 ± 0
  SSC male (joint plates with papillary processes): 99 ± 21
[1]; 8.72 mg/L measured, 21 d, sig. ↓ vs control
  Fertility rate: 49 ± 12%
[1]; 18.5 mg/L measured, 21 d
  Hepatic VTG, female: 693 ± 243 ng/mg‐liver
  Hepatic VTG, male: 1.4 ± 0.9 ng/mg‐liver
  SSC female (joint plates with papillary processes): 0 ± 0
  SSC male (joint plates with papillary processes): 85 ± 15
[1]; [6]
  Mortality: 33%
  Mortality, number of dead fish: 8
[1]; 18.5 mg/L measured, 21 d, sig. ↓ vs control
  Fertility rate: 18 ± 4.1%
[1]; 21 d
  Change of hepatic VTG levels in females (in words): did not reduce
  Fecundity, number of total eggs (in words): statistically significant decrease
[1]; LOEC on VTG induction in males
  LOECmVTG: ND (>18,500) μg/L
[1]; LOEC on reproduction (fecundity and/or fertility)
  LOECREPRO: 8,720 μg/L
[1]; lowest observed effect concentration on mortality
  LOECTOX: 4,760 μg/L
[1]; [7]
  GSI Female: 8.3 ± 0.8%
  GSI Male: 1.32 ± 0.77%
  HSI Male: 1.4 ± 0.36%
  Length Female: 35.9 ± 0.4 mm
  Length Male: 35.9 ± 0.6 mm
  Weight Female: 466 ± 26 mg
  Weight Male: 435 ± 26 mg
[1]; [8]
  GSI Female: 9.0 ± 1.4%
  GSI Male: 1.00 ± 0.26%
  HSI Male: 1.6 ± 0.35%
  Length Female: 35.5 ± 1.0 mm
  Length Male: 36.5 ± 1.5 mm
  Weight Female: 463 ± 10 mg
  Weight Male: 435 ± 63 mg
[1]; [9]
  GSI Female: 19.3 ± 10%
  GSI Male: 1.04 ± 0.31%
  HSI Male: 2.2 ± 0.30%
  Length Female: 36.0 ± 0.5 mm
  Length Male: 36.5 ± 0.1 mm
  Weight Female: 576 ± 28 mg
  Weight Male: 415 ± 31 mg
[1]; [10]
  GSI Female: 17.0 ± 9.7%
  GSI Male: 0.44 ± 0.26%
  HSI Male: 3.4 ± 0.47%
  Length Female: 37.5 ± 1.4 mm
  Length Male: 38.4 ± 1.4 mm
  Weight Female: 609 ± 67 mg
  Weight Male: 507 ± 83 mg
Medaka ARβ (mArβ) [2]
  Antagonistic activity: NE (MAC = 3.2 × 10^−5 M)^(D)
Medaka ARβ (mArβ) [3]
  Agonistic activity: NE (MAC = 1.0 × 10^−4 M)
Medaka Esr1 (mEsr1) [4]
  Agonistic activity: NE (MAC = 1.0 × 10^−4 M)
Medaka Esr1 (mEsr1) [5]; antagonist assays
  Antagonistic activity on mEsr1 (in words): inhibited the transcriptional activity on mEsr1 by E2
Medaka Esr1 (mEsr1) [5]; mode of action in which IC50 or IC30 was obtained in RGA
  In vitro positive: aEsr: aEsr
Medaka Esr1 (mEsr1) [5]; read-out: Antagonistic activity IC50, E2 spiked at 0.2 nM (A)
  IC50: 2.1 µM

— paper PMC9297976 (Journal of Applied Toxicology, 2021)
